# Test results reported in patent US7317125B2 (Hoffman-La Roche Inc., priority 2005, dated 2008).
# Target: T1, DGAT1 (Homo sapiens, UniProt O75907)
# T1 construct: expressed in transfected cells; host or cells: CHOK1
# T1 sequence (O75907 1-488): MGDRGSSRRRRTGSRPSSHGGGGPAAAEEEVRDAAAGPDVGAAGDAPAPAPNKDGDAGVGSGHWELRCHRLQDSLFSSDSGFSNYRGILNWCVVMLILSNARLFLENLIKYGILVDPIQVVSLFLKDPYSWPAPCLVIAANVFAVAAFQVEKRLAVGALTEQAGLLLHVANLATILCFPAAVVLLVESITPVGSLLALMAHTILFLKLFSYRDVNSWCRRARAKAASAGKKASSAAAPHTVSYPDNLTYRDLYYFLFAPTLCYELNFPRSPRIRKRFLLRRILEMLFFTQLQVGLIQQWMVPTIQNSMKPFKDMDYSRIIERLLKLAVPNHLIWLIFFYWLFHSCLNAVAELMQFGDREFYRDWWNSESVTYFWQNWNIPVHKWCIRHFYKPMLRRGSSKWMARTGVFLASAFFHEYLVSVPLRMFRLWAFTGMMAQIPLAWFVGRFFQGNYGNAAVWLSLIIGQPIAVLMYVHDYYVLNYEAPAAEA
# Experiment: DGAT CHOK1 Cell Assay
# Assay type: cell-based
# Settings: CHOK1 cells transfected with DGAT1, 14C palmitic acid, 1 hour at 37° C., triglyceride by TLC
# Excerpt: Materials for the assay were: petroleum ether (J. T. Baker #9268-22); diethyl ether (Aldrich #30995-8); acetic acid; 1,2-dioleoyl-3-palmitoyl-glycerol (Sigma D-1782); ^[…] Palmitic Acid (56.0 mCi/mmol PerkinElmer Life Sciences # NEC 075H); DMEM/F12 (Gibco #11330-032); fetal bovine serum; L-Glutamine; G418/ml media; DMEM High Glucose (Gibco #11995-065); BSA Fraction V Fatty Acid Free (Roche #100 377); 20×°cm silica gel 60 glass plates (EM Science Plates #5721/7).
# CHOK1/DGAT cell culture medium was prepared with DMEM/F12 (Gibco #11330-032), […], and 20 ul G418/ml media. 1,2-dioleoyl-3-palmitoyl-glycerol was prepared by dissolving 10 mg into 1 ml chloroform and stored at −20° C. in 100 μl aliquots. Test compounds were prepared as 10 mM stock solutions in DMSO and store at −20° C. before use. Test dilutions were prepared by five fold serial dilutions over final concentrations.
# CHOK1 cells transfected with DGAT1 were diluted in 6 well plates at 2.5×10^5 cells per well and cultured overnight. Cells were then washed twice with PBS. Test compound solutions (10 μl/2 ml media aliquots) in DMEM High Glucose with 0.01% BSA (fatty acid free) were added to cell culture plates at 800 μl per well. ^14C Palmitic acid (0.5 μCi, 5 μl) was added to each well. The plates were incubated for 1 hour at 37° C. After the incubation period, the plates were placed on ice, cells were scraped into media and transferred to microfuge tubes. 400 μl chloroform:methanol (2:1) was added to each tube. Each tube was briefly vortexed by hand, then mechanically vortexed for 10 minutes. Each tube was then centrifuged at 14,000 RPM for 10 minutes at 4° C. and the bottom layer removed and transferred to a new microfuge tube.
# Extracted samples were spotted onto TLC plates at 20 μl per lane. The TLC plates were eluted with a solvent mixture of petroleum ether, diethyl ether and acetic acid (80:20:1) and air dried. Trigylceride (TG) spots were visualized by placing in an iodine chamber for several minutes. 1 μl of ^14C palmitic acid (diluted 1:10 in 100% EtOH) was spotted on the TG standard lane (at TG level) as a reference. The TLC plates were wrapped in plastic wrap and placed in a phosphorimager cassette for scanning.
# The EC50 values for those compounds tested in this Example were generated using an Excel template, the results of which are shown in Table II: […]
row,Structure (SMILES),EC50 [µM]
1,"CC(C)N(NC(=O)c1ccoc1)C(=O)COc1ccc(F)cc1-c1ccccc1OC(F)(F)F [Example 37, furan-3-carboxylic acid N′-[2-(5-fluoro-2′-trifluoromethoxy-biphenyl-2-yloxy)-acetyl]-N′-isopropyl-hydrazide]",11.1
2,"CC(C)N(NC(=O)C1CCCCC1)C(=O)COc1ccc(F)cc1-c1ccccc1OC(F)(F)F [Example 38, cyclohexanecarboxylic acid N′-[2-(5-fluoro-2′-trifluoromethoxy-biphenyl-2-yloxy)-acetyl]-N′-isopropyl-hydrazide]",2.81
3,"COCCOc1ccc(C(=O)NN(C(=O)COc2ccc(F)cc2-c2ccccc2OC(F)(F)F)C(C)C)cc1 [Example 39, 4-(2-methoxy-ethoxy)-benzoic acid N′-[2-(5-fluoro-2′-trifluoromethoxy-biphenyl-2-yloxy)-acetyl]-N′-isopropyl hydrazide]",3.05
4,"CC(C)N(NC(=O)c1cccs1)C(=O)COc1ccc(F)cc1-c1ccccc1OC(F)(F)F [Example 40, thiophene-2-carboxylic acid N′-[2-(5-fluoro-2′-trifluoromethoxy-biphenyl-2-yloxy)-acetyl]-N′-isopropyl hydrazide]",3.48
5,"CC(C)N(NC(=O)C1CCSCC1)C(=O)COc1ccc(F)cc1-c1ccccc1OC(F)(F)F [Example 41, tetrahydro-thiopyran-4-carboxylic acid N′-[2-(5-fluoro-2′-trifluoromethoxy-biphenyl-2-yloxy)-acetyl]-N′-isopropyl hydrazide]",0.774
6,"CC(C)N(NC(=O)c1ccsc1)C(=O)COc1ccc(F)cc1-c1ccccc1OC(F)(F)F [Example 42, thiophene-3-carboxylic acid N′-[2-(5-fluoro-2′-trifluoromethoxy-biphenyl-2-yloxy)-acetyl]-N′-isopropyl hydrazide]",3.29
7,"COc1cccc(-c2ccccc2SCC(=O)N(NC(=O)c2ccccc2)C(C)C)c1 [Example 50, benzoic acid N′-[2-(3′-methoxy-biphenyl-2-ylsulfanyl)-acetyl]-N′-isopropyl-hydrazide]",1.29
8,"CC(C)N(NC(=O)c1ccccc1)C(=O)CSc1ccccc1-c1ccc(F)cc1 [Example 51, benzoic acid N′-[2-(4′-fluoro-biphenyl-2-ylsulfanyl)-acetyl]-N′-isopropyl-hydrazide]",4.9
9,"CC(C)N(NC(=O)c1ccccc1)C(=O)CSc1ccccc1-c1cccc(C(F)(F)F)c1 [Example 52, benzoic acid N′-[2-(3′-trifluoromethyl-biphenyl-2-ylsulfanyl)-acetyl]-N′-isopropyl-hydrazide]",1.6
10,"COc1ccc(-c2ccccc2SCC(=O)N(NC(=O)c2ccccc2)C(C)C)cc1 [Example 55, benzoic acid N′-[2-(4′-methoxy-biphenyl-2-ylsulfanyl)-acetyl]-N′-isopropyl-hydrazide]",2.3
11,"CC(C)CNc1ccc(C(=O)NN(C(=O)COc2ccc(F)cc2-c2ccccc2OC(F)(F)F)C(C)C)cc1 [Example 57, 4-(isobutylamino)-benzoic acid N′-[2-(5-fluoro-2′-trifluoromethoxy-biphenyl-2-yloxy)-acetyl]-N′-isopropyl hydrazide]",0.348

# Continued, values first:
row,EC50 [µM],Structure (SMILES)
1,3.4,"CC(C)N(NC(=O)c1ccccc1)C(=O)CSc1ccccc1-c1cccc(F)c1 [Example 48, benzoic acid N′-[2-(3′-fluoro-biphenyl-2-ylsulfanyl)-acetyl]-N′-isopropyl-hydrazide]"
2,5.67,"Cc1cccc(-c2ccccc2SCC(=O)N(NC(=O)c2ccccc2)C(C)C)c1C [Example 49, benzoic acid N′-[2-(2′,3′-dimethyl-biphenyl-2-ylsulfanyl)-acetyl]-N′-isopropyl-hydrazide]"
3,6.7,"COc1ccccc1-c1ccccc1SCC(=O)N(NC(=O)c1ccccc1)C(C)C [Example 53, benzoic acid N′-[2-(2′-methoxy-biphenyl-2-ylsulfanyl)-acetyl]-N′-isopropyl-hydrazide]"
4,1.43,"CC(C)N(NC(=O)c1ccccc1)C(=O)CSc1ccccc1-c1ccccc1F [Example 54, benzoic acid N′-[2-(2′-fluoro-biphenyl-2-ylsulfanyl)-acetyl]-N′-isopropyl-hydrazide]"
5,37.4,"CC(C)N(NC(=O)c1ccccc1)C(=O)CSc1ccccc1-c1ccccc1 [Example 56, benzoic acid N′-[2-(biphenyl-2-ylsulfanyl)-acetyl]-N′-isopropyl-hydrazide]"
